Source: patent US20210147482A1, “PEPTIDE FOR INHIBITING BONE RESORPTION” (NIBEC CO., LTD., priority 2017, published 2021)

Legend:
[1] = tested on: osteoclasts from mouse-derived bone marrow macrophages; test: Podosome belt formation in osteoclasts (confocal microscopy); type: cell-based; details: 20 ng/ml M-CSF, 100 ng/ml RANKL, 20 μg/ml HBD3-C15, 5 days; FIG. 3
Method: Thus, in order to determine whether or not the reduction of osteoclast differentiation by HBD3-C15 is affected by podosome belt formation in osteoclasts, mouse-derived bone marrow macrophages were differentiated on a cover glass. Mouse-bone-marrow-derived macrophages were treated with 20 ng/ml of M-CSF and 100 ng/ml of RANKL, or 20 ng/ml of M-CSF, 100 ng/ml of RANKL and 20 μg/ml of HBD3-C15, and cultured for 5 days. The cells were fixed with 4% paraformaldehyde, stained with Alexa-Fluor-488-conjugated-phalloidin, and washed and stained with Hoechst 33258. The degree of staining of cells was observed by confocal microscopy.

mature osteoclasts = test: Destruction of podosome belt of differentiated mature osteoclasts; type: cell-based, mouse; details: 20 μg/ml HBD3-C15 added on day 4 of differentiation, cultured 1 day; FIG. 4
Method: Thus, in order to determine whether or not HBD3-C15 can inhibit the activity of differentiated mature osteoclasts, mouse-bone-marrow-derived macrophages were treated with 20 ng/ml of M-CSF and 100 ng/ml of RANKL on a cover glass for 4 days to induce differentiation of osteoclasts. The osteoclasts were treated with 20 μg/ml of HBD3-C15 on day 4 of differentiation and cultured for 1 day. The cells were fixed with 4% paraformaldehyde, stained with Alexa-Fluor-488-conjugated phalloidin, washed and nuclei-stained with Hoechst 33258. The degree of staining of cells was observed by confocal microscopy.

NFATc1 [2] = test: NFATc1 protein expression by immunoblotting; type: cell-based, mouse; details: treated with HBD3-C15 for 48 hours; FIG. 1D
Method: (§1) In addition, in order to determine changes of the protein expression of c-Fos and NFATc1, the proteins were extracted from mouse-bone-marrow-derived macrophages, treated with HBD3-C15 for 48 hours, and 40 μg of the protein was transferred to the PVDF membrane through an SDS-PAGE gel. Then, immunoblotting was performed using c-Fos and NFATc1-specific antibodies.

NFATc1 [3] = test: NFATc1 RNA expression by RT-PCR; type: cell-based, mouse; details: 20 ng/ml M-CSF, 100 ng/ml RANKL, 20 μg/ml HBD3-C15, 24 hours; FIG. 1D
Method: (§2) In addition, expression of c-fos and NFATc1, which are well-known key transcription factors for osteoclast differentiation, was determined at protein and RNA levels.
(§3) Mouse-bone-marrow-derived macrophages were treated with 20 ng/ml of M-CSF and 100 ng/ml of RANKL, or 20 ng/ml of M-CSF, 100 ng/ml of RANKL and 20 μg/ml of HBD3-C15 for 24 hours, RNA was extracted, and the quantified RNA and random primers were reacted at 70° C. for 5 minutes and reacted in the presence of a reverse transcriptase, reverse transcription buffer and dNTPs at 42° C. for 1 hour. The result was amplified by 35 cycles using the synthesized cDNA as a template and using c-Fos and NFATc1-specific oligos as primers in a polymerase chain reaction machine.

mouse skulls [4] = test: Mouse skull resorption induced by A.a.LPS; type: in vivo; details: transplantation of HBD3-C15; FIG. 6
Method: In addition, lipopolysaccharide of Aggregatibacter actinomycetemcomitans (A.a.LPS), a bacterium known to cause aggressive periodontitis accompanied with rapid alveolar bone loss, induced resorption of mouse skulls, and whether such resorption can be inhibited by HBD3-C15 was determined

c-Fos [5] = test: c-Fos protein expression by immunoblotting; type: cell-based, mouse; details: treated with HBD3-C15 for 48 hours; FIG. 1D
Method: as §1

mouse skulls [6] = test: Calvarial implantation model, bone resorption by RANKL; type: in vivo; details: 20 μg RANKL and 200 μg HBD3-C15 in collagen sheet, day 7
Method: In order to determine the inhibition of bone destruction by HBD3-C15 in vivo, a calvarial implantation model, a typical bone loss model, was used.
20 μg of RANKL, a key cytokine that can destroy bones, was soaked in a collagen sheet and was transplanted alone into mouse skulls, or 20 μg of RANKL and 200 μg of HBD3-C15 were soaked in a collagen sheet and then transplanted into mouse skulls. The mice were sacrificed on day 7 of transplantation, and the degree of skull bone destruction was analyzed by scanning via micro-CT.
After micro-CT analysis, TRAP staining was performed to determine the number of osteoclasts in the skull.

[7] = tested on: osteoclasts cultured from mouse-bone-marrow-derived macrophages on dentin discs; test: Bone resorption activity of osteoclasts on dentin discs; type: cell-based; details: 20 ng/ml M-CSF, 100 ng/ml RANKL, 20 μg/ml HBD3-C15, 6 days, FIG. 2
Method: The osteoclasts were cultured in mouse-bone-marrow-derived macrophages on dentin discs based on the fact that osteoclasts perform all functions thereof in environments enabling bone absorption. Mouse-bone-marrow-derived macrophages were treated with 20 ng/ml of M-CSF and 100 ng/ml of RANKL, or with 20 ng/ml of M-CSF, 100 ng/ml of RANKL and 20 μg/ml of HBD3-C15, and then cultured for 6 days. The bone resorption area and bone resorption depth were imaged by confocal microscopy and total bone resorption depth and bone resorption area were measured by LSM Image Browser software.

[8] = tested on: mouse-bone-marrow-derived macrophages; test: Osteoclast differentiation by TRAP staining; type: cell-based; details: 100 ng/ml RANKL + 0.2, 2, or 20 μg/ml HBD3-C15, 3 days
Method: In order to evaluate the effect of HBD3-C15, a peptide fragment derived from human beta-defensin-3 (HBD3) on the differentiation of osteoclasts, which are bone destruction cells, mouse-bone-marrow-derived macrophages were used. The bone marrow-derived macrophages that were used were prepared by isolating bone marrow cells from the long bone of mice and culturing the same at 100% humidity and 37° C. in an alpha MEM containing 10% fetal bovine serum, 50 unit/ml of penicillin and 50 μg/ml of streptomycin along with 20 ng/ml of M-CSF for 5 days, while continuously feeding 5% carbon dioxide.
Mouse-bone-marrow-derived macrophages were seeded at 20,000 cells/well on a 96-well plate, treated with 100 ng/ml of receptor activator of nuclear factor-kappaB ligand (RANKL) alone, or a combination of 100 ng/ml of RANKL and 0.2, 2, or 20 μg/ml of HBD3-C15, and cultured for 3 days. In order to determine the degree of differentiation of osteoclasts, tartrate-resistant acid phosphatase (TRAP) staining was performed, and cells with three or more nuclei having osteoclast activity were counted and statistically analyzed.

[9] = tested on: osteoblast cell line MC3T3-E1 (Subclone 4); test: Osteoblast differentiation by alkaline phosphate staining; type: cell-based; details: differentiation medium (50 μg/ml ascorbic acid, 10 mM β-glycerophosphate) + 20 μg/ml HBD3-C15, 6 days; FIG. 7
Method: In order to evaluate the effect of HBD3-C15 on differentiation of osteoblasts, which are bone formation cells, the osteoblast cell line MC3T3-E1 (Subclone 4) was used. The cells were prepared by culturing in alpha-MEM medium without ascorbic acid containing 10% fetal bovine serum, 50 unit/ml of penicillin, and 50 μg/ml of streptomycin at 37° C. and 100% humidity while continuously supplying 5% carbon dioxide.
MC3T3-E1 cells were seeded at a density of 25,000 cells/well into a 48-well plate, then treated with a differentiation medium alone supplemented with 50 μg/ml of ascorbic acid and 10 mM of β-glycerophosphate, or in combination with 20 μg/ml of HBD3-C15, and cultured for 6 days. Alkaline phosphate staining was performed to determine the differentiation of osteoblasts and images were obtained through a camera mounted on a microscope.

c-Fos [10] = test: c-Fos RNA expression by RT-PCR; type: cell-based, mouse; details: 20 ng/ml M-CSF, 100 ng/ml RANKL, 20 μg/ml HBD3-C15, 24 hours; FIG. 1D
Method: as §2, §3

G-K-C-S-T-R-G-R-K-C-C-R-R-K-K [HBD3-C15]
podosome belt formation by RANKL [1]: no clear podosome belt | podosome belt of differentiated mature osteoclasts (mature osteoclasts): incomplete podosome belt | NFATc1 protein expression attributable to RANKL (NFATc1 [2]): inhibited an increase | expression of NFATc1 (RNA) increased by RANKL (NFATc1 [3]): reduced | number of osteoclasts (A.a.LPS model) (mouse skulls [4]): decreased | skull resorption by A.a.LPS (mouse skulls [4]): significantly reduced | c-Fos protein expression attributable to RANKL (c-Fos [5]): inhibited an increase | number of osteoclasts in the skull (TRAP staining) (mouse skulls [6]; FIG. 5C): significantly reduced | skull absorbed by RANKL (micro-CT) (mouse skulls [6]; FIGS. 5A and 5B): significantly reduced | increase in bone resorption area attributable to RANKL [7]: significantly reduced | increase in bone resorption depth attributable to RANKL [7]: significantly reduced | number of TRAP positive cells increased due to RANKL ([8]; FIG. 1A): decreased in a concentration-dependent manner | number of cells with three or more nuclei having osteoclast activity ([8]; FIG. 1B): statistically significantly decreased | number of cells having ten or more nuclei ([8]; FIG. 1C): significantly decreased | degree of differentiation of osteoblasts [9]: no difference in the degree of differentiation | expression of c-Fos (RNA) increased by RANKL (c-Fos [10]): reduced
